The numbers were not newly measured in patent US20240344094A1, “METHODS AND COMPOSITIONS USEFUL FOR THE PRODUCTION OF OLEFINIC ESTER” (THE REGENTS OF THE UNIVERSITY OF CALIFORNIA, priority 2021, published 2024), which cites them from elsewhere.

Regarding `C=C(C)CCO` [Isoprenol, 3-methyl-3-buten-1-ol], the solubility in water entry (20° in water) is reported as “about 90 g/L”. Turning to `CC(=O)OCCC(C)C` [isoamyl acetate], under “water”, the “solubility limit in water” value is around 10000 µg/mL.
